In patent US20220395497A1, “Cancer Treatment Using Camptothecin Derivatives” (priority 2019, published 2022):
Values joined by “and” are separate entries in the source; they are usually repeats but may differ in a detail not shown here. Equal entries are not always repeated.

System: adults with recurrence of glioblastoma multiforme (GBM)
Assay: Phase 2 open-label study of IV AR-67 (7.5 mg/m2 once daily for 5 days, 21-day cycle) in recurrent GBM: adverse events (Safety Population, NCI-CTCAE). Cohort 1 = not received or not recently failed (>90 days) bevacizumab; Cohort 2 = recently (<90 days) failed bevacizumab
Assay type: in vivo, human
Experimental: This solution was reconstituted in dextrose 5% in water to a final concentration between 0.06-0.6 mg/mL Drug (7.5 mg/m2) was to be given until the onset of toxicity requiring discontinuation or tumor progression. Tumor response was assessed=14d after every second cycle and before every third cycle using MRI.

[1] = All Patients, N = 45, possibly, probably, or definitely related

## CC[C@@]1(O)C(=O)OCc2c1cc1n(c2=O)Cc2c-1nc1ccc(O)cc1c2[Si](C)(C)C(C)(C)C [AR-67, (205)-7-tert-butyldimethysilyl-10-hydroxycamptothecin]
All Patients
  TEAEs associated with laboratory abnormalities assessed as Grade 4 in toxicity, events: Three
  headache as TEAE leading to discontinuation, patients: 3
  patients with AR-67 permanently discontinued due to an SAE: Three
  patients with AR-67 temporarily interrupted or stopped due to an SAE: Six
  patients with dose modification due to an SAE: 2
  thrombocytopenia, anaemia, neutropenia, and leukopenia, each occurring in % of all patients: 11-18%
All Patients, N = 45
  Death, No of Events: 3
  Death, patients (%): (6.7) %
  SAE, No of Events: 30
  TEAE Anaemia, patients (%): 15.6%
  TEAE Confusional state, patients (%): 11.1%
  TEAE Constipation, patients (%): 20.0%
  TEAE Convulsion, patients (%): 8.9%
  TEAE Definitely Related to AR-67, No of Events: 55
  TEAE Diarrhoea, patients (%): 15.6%
  TEAE Dizziness, patients (%): 11.1%
  TEAE Dyspepsia, patients (%): 8.9%
  TEAE Eye Disorders, patients (%): 8.9%
  TEAE Flushing, patients (%): 11.1%
  TEAE Gastrointestinal Disorders, patients (%): (51.1) %
  TEAE General Disorders and Administration Site Conditions, patients (%): (37.8) %
  TEAE Headache, patients (%): (22.2) %
  TEAE Hiccups, patients (%): 11.1%
  TEAE Hyperglycaemia, patients (%): 8.9%
  TEAE Hypopho sphataemia, patients (%): 8.9%
  TEAE Intensity Life Threatening, No of Events: 4
  TEAE Intensity Life Threatening, patients (%): (8.9) %
  TEAE Intensity Mild, No of Events: 212/428 and 212
  TEAE Intensity Mild, patients (%): (68.9) %
  TEAE Intensity Moderate, No of Events: 128/428 and 128
  TEAE Intensity Moderate, patients (%): (57.8) %
  TEAE Intensity Severe, No of Events: 75
  TEAE Intensity Severe, patients (%): (62.2) %
  TEAE Leukopenia, patients (%): 11.1%
  TEAE Lymphocyte count decreased, patients (%): 11.1%
  TEAE Muscular weakness, patients (%): 11.1%
  TEAE Musculoskeletal and Connective Tissue Disorders, patients (%): (28.9) %
  TEAE Musculoskeletal pain, patients (%): 6.7%
  TEAE NCI-CTCAE Grade 1, No of Events: 209
  TEAE NCI-CTCAE Grade 1, patients (%): (66.7) %
  TEAE NCI-CTCAE Grade 2, No of Events: 119
  TEAE NCI-CTCAE Grade 2, patients (%): (51.1) %
  TEAE NCI-CTCAE Grade 3, No of Events: 82
  TEAE NCI-CTCAE Grade 3, patients (%): (66.7) %
  TEAE NCI-CTCAE Grade 4, No of Events: 9
  TEAE NCI-CTCAE Grade 4, patients (%): (20.0) %
  TEAE Nausea, patients (%): 20.0%
  TEAE Nervous System Disorders, patients (%): (51.1) %
  TEAE Neutropenia, patients (%): 13.3%
  TEAE Neutrophil count decreased, patients (%): 13.3%
  TEAE Not Related to AR-67, No of Events: 117
  TEAE Platelet count decreased, patients (%): 8.9%
  TEAE Possibly Related to AR-67, No of Events: 170
  TEAE Probably Related to AR-67, No of Events: 79
  TEAE Psychiatric Disorders, patients (%): (28.9) %
  TEAE Respiratory, Thoracic, and Mediastinal Disorders, patients (%): (24.4) %
  TEAE Thrombocytopenia, patients (%): 17.8%
  TEAE Vascular Disorders, patients (%): 17.8%
  TEAE Vision blurred, patients (%): 8.9%
  TEAE Vomiting, patients (%): 8.9%
  TEAE White blood cell count decreased, patients (%): 11.1%
  TEAE leading to death, No of Events: 17
  TEAE leading to early discontinuation, No of Events: 10
  TEAE, No of Events: 428
  ≥1 TEAE leading to death, patients (%): (4.4) %
[1]
  1 related SAE, patients (%): (24.4) %
  related SAE, No of Events: 19/29 and 19/30 and 11/30 and 19
  related TEAE, No of Events: 304
Cohort 1
  SAE headache, patients: 1
  SAE infections and infestations, events: 4
  SAE infections and infestations, patients: 3
  SAE nervous system disorders, events: 3
  SAE nervous system disorders, patients: 3
  SAE respiratory, thoracic and mediastinal disorders, events: 3
  SAE respiratory, thoracic and mediastinal disorders, patients: 2
Cohort 1, N = 30
  Death, No of Events: 1
  Death, patients (%): (3.3) %
  SAE, No of Events: 16
  TEAE Anaemia, patients (%): 23.3% and 23%
  TEAE Blood and Lymphatic System Disorders, events: 41
  TEAE Confusional state, patients (%): 10.0%
  TEAE Constipation, patients (%): 23.3% and 23%
  TEAE Convulsion, patients (%): 10.0%
  TEAE Definitely Related to AR-67, No of Events: 36
  TEAE Definitely Related to AR-67, patients (%): (40.0) %
  TEAE Diarrhoea, patients (%): 16.7%
  TEAE Dizziness, patients (%): 16.7%
  TEAE Dyspepsia, patients (%): 13.3%
  TEAE Eye Disorders, patients (%): (10.0) %
  TEAE Flushing, patients (%): (16.7) %
  TEAE Gastrointestinal Disorders, patients (%): (50.0) %
  TEAE General Disorders and Administration Site Conditions, patients (%): (36.7) %
  TEAE Headache, patients (%): 23.3% and 23%
  TEAE Hiccups, patients (%): (10.0) %
  TEAE Hyperglycaemia, patients (%): (13.3) %
  TEAE Hypopho sphataemia, patients (%): (13.3) %
  TEAE Intensity Life Threatening, No of Events: 3
  TEAE Intensity Life Threatening, patients (%): (10.0) %
  TEAE Intensity Mild, No of Events: 177
  TEAE Intensity Mild, patients (%): (73.3) %
  TEAE Intensity Moderate, No of Events: 100
  TEAE Intensity Moderate, patients (%): (66.7) %
  TEAE Intensity Severe, No of Events: 59
  TEAE Intensity Severe, patients (%): (60.0) %
  TEAE Investigations SOC, events: 101
  TEAE Leukopenia, patients (%): 16.7%
  TEAE Lymphocyte count decreased, patients (%): 16.7%
  TEAE Metabolism and Nutrition Disorders, patients (%): (26.7) %
  TEAE Muscular weakness, patients (%): 10.0%
  TEAE Musculoskeletal and Connective Tissue Disorders, patients (%): (33.3) %
  TEAE Musculoskeletal pain, patients (%): 10.0%
